Patent publication US7691885B2, “Pyridones useful as inhibitors of kinases” (Vertex Pharmaceuticals Incorporated, priority 2005, dated 2010)

Biological target: T1, human Itk kinase (Homo sapiens, UniProt Q08881)
T1 sequence (Q08881 1-620): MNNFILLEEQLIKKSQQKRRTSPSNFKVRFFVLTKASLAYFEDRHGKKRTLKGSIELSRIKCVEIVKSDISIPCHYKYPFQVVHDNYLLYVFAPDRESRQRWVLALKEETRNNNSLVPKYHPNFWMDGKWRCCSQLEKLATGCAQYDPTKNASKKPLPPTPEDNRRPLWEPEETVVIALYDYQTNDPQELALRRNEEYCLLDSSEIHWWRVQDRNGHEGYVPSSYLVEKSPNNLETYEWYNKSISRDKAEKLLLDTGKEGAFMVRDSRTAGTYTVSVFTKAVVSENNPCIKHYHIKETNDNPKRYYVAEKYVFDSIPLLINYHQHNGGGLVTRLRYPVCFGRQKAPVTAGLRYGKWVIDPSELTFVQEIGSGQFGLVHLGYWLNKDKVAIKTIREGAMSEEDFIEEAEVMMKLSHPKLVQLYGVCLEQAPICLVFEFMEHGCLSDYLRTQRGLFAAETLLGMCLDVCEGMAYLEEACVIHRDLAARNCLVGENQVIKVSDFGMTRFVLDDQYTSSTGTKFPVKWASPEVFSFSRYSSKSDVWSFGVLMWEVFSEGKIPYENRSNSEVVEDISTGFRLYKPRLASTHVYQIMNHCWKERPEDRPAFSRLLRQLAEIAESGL
Experiment: Itk inhibition assay (radioactivity-based or spectrophotometric coupled enzyme assay)
Assay type: biochemical
Experimental: The compounds of the present invention can be evaluated as inhibitors of human Itk kinase using either a radioactivity-based or spectrophotometric assay. In general, compounds of the invention, including the compound in Table 1, are effective for the inhibition of ITK. Specifically, compound I.1 has a Ki value of <2 uM.
Assays are carried out in a mixture of 100 mM HEPES (pH 7.5), 10 mM MgCl2, 25 mM NaCl, 0.01% BSA and 1 mM DTT. Final substrate concentrations are 15 μM [γ-^33P]ATP (400 μCi ^33P ATP/μmol ATP, Amersham Pharmacia Biotech/Sigma Chemicals) and 2 μM peptide (SAM68 protein Δ332-443). Assays are carried out at 25° C. in the presence of 30 nM Itk. An assay stock buffer solution is prepared containing all of the reagents listed above, with the exception of ATP and the test compound of interest. […]
IC50 data are calculated from non-linear regression analysis of the initial rate data using the Prism software package (GraphPad Prism version 3.0cx for Macintosh, GraphPad Software, San Diego Calif., USA). […]
Ki(app) data are calculated from non-linear regression analysis of the initial rate data using the Prism software package (GraphPad Prism version 3.0cx for Macintosh, GraphPad Software, San Diego Calif., USA). […]

Ki: < 2000 nM
Structure (SMILES): O=c1[nH]cc(-c2ccccc2)cc1-c1cc2ccccc2[nH]1 [Compound I.1, 3-(1H-indol-2-yl)-5-phenylpyridin-2(1H)-one]
